Experiments:
[1] = target: T1, CYP2C8 (Homo sapiens, UniProt P10632); assay: In vitro studies: CYP inhibition; format: in vitro ADME
T1 sequence (P10632 1-490): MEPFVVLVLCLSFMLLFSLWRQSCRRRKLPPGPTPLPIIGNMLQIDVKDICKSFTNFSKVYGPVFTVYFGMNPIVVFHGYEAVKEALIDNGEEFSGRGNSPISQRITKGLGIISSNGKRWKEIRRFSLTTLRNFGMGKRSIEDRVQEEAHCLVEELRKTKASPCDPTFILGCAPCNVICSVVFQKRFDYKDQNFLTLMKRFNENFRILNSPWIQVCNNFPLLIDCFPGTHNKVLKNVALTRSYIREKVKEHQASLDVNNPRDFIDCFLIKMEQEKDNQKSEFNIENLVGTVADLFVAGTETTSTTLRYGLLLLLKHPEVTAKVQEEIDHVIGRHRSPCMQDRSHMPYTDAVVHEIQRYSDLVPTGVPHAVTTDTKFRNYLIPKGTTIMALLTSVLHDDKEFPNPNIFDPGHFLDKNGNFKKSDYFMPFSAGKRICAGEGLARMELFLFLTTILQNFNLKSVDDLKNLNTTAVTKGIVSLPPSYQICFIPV

[2] = tested on: subjects with primary biliary cirrhosis; assay: Example 8: OCA in combination with UDCA in subjects with primary biliary cirrhosis; format: in vivo, human
Description: This example describes a study conducted using an international, multi-center, randomized, double-blind, placebo-controlled, multi-dose, parallel group to determine efficacy and safety of obeticholic acid (OCA) in combination with ursodeoxycholic acid (UDCA) in subjects with primary biliary cirrhosis.
Key Exclusion criteria • Use of colchicine, methotrexate, azathioprine, or systemic corticosteroids • Screening conjugated (direct) bilirubin>2×ULN; ALT or AST>5×ULN; serum creatinine>1.5 mg/dL (133 μmol/L) • History or presence of hepatic decompensation (e.g., variceal bleeds, encephalopathy, or poorly controlled ascites) • History or presence of other concomitant liver diseases or human immunodeficiency virus (HIV) or other viral hepatitis infection • Clinically significant medical condition, and gastrointestinal conditions affecting drug ADME
The percent change (%) in serum ALP from Baseline to End of Study (EOS) was tested where [EOS=Day 85 or last observed ALP value on treatment]
Also observed were the absolute and percent changes in serum ALP levels from Baseline to Day 15, Day 29, Day 57, Day 85/ET and Follow-Up (Day 99). Patients were examined for the absolute and percent change in serum gamma-glutamyl transferase (GGT), alanine aminotransferase (ALT), and aspartate aminotransferase (AST) values from Baseline to Day 15, Day 29, Day 57, Day 85/ET and Follow-Up (Day 99). Patients were examined for absolute and percent changes in serum albumin and conjugated (direct) bilirubin values from Baseline to Day 15, Day 29, Day 57, Day 85/ET and Follow-Up (Day 99). Patients' Enhanced liver fibrosis (ELF) score and change in levels of its components, hyaluronic acid, aminoterminal peptide of pro-collagen III, and tissue inhibitor of matrix metalloproteinase-1 from Baseline to Day 85/ET were performed. The absolute and percent changes in levels of C-reactive protein, non-esterified fatty acid, tumor necrosis factor alpha, tumor necrosis factor beta, tumor growth factor beta, bile acids, glutathione, immunoglobulin M, and osteopontin from Baseline to Day 85/ET were taken.
Overall, 165 subjects (100%) received at least 1 dose of investigational product (ITT and Safety Populations) and 136 subjects comprised the Completer Population. One hundred sixty-one subjects (98%) were included for the analysis of the mITT Population as measured by the percent change in ALP from Baseline to EOS; the mITT Population for sensitivity analysis of the primary endpoint included 163 subjects. It should be noted that the mITT population was defined for the primary analysis as all patients randomized who received at least one dose of study medication and had at least one post-baseline ALP evaluation which was taken at most seven days after their last dose of study medication. (See FIG. 10). The mITT Population for the sensitivity analysis included ALP assessments obtained up to 15 days after the last investigational product use (unlike 7 days for primary endpoint). The number of subjects was balanced across all groups in all analysis populations with the exception of the Completer Population due to the higher proportion of discontinuations with OCA 50 mg.

[3] = tested on: CYP2B6, CYP2C8, CYP2D6, MRP2, MRP3, MRP4, MATE1, and OATP2B1; assay: In vitro studies: expression of metabolizing enzymes and transporters; format: in vitro ADME
[4] = target: T2, farnesoid X receptor (FXR) (Homo sapiens, UniProt Q96RI1); conditions: FXR agonism; cited from earlier work
T2 sequence (Q96RI1 1-486): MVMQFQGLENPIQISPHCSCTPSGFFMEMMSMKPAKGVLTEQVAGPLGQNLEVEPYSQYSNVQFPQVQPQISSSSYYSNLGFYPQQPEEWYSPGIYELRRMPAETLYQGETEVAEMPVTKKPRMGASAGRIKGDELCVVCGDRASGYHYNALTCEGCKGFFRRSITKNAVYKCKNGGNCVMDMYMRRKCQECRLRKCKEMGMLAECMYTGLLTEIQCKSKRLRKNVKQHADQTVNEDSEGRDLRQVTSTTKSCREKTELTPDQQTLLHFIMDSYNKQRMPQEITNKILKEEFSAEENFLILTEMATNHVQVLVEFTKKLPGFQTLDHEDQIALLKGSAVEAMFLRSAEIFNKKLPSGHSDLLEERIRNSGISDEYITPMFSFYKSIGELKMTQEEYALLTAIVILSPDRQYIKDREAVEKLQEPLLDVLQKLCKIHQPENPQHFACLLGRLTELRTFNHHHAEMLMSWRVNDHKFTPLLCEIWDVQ

[5] = OCA 10 mg + UDCA, Completer (n = 32)
[6] = OCA 25 mg + UDCA, Completer (n = 42)
[7] = OCA 50 mg + UDCA, Completer (n = 25)

SMILES: CC[C@H]1[C@@H](O)[C@@H]2[C@H](CC[C@]3(C)[C@@H]([C@H](C)CCC(=O)O)CC[C@@H]23)[C@@]2(C)CC[C@@H](O)C[C@@H]12 [OCA, 3α,7α-dihydroxy-6α-ethyl-5β-cholan-24-oic acid]
- inhibition of CYP2C8 [1]: not an inhibitor
- ALP Mean Change, Baseline to Day 85/ET [2, 5]: −86.3 U/L
- ALP Mean Percent Change, Baseline to Day 85/ET [2, 5]: −26.7%
- ALP Median Change, Baseline to Day 85/ET [2, 5]: −61.3 U/L
- ALP Median Percent Change, Baseline to Day 85/ET [2, 5]: −23.5%
- ALP at Day 85/ET, Mean [2, 5]: 212.3 U/L
- ALP at Day 85/ET, Median [2, 5]: 175.0 U/L
- ALP Mean Change, Baseline to Day 85/ET ([2]; OCA 10 mg + UDCA, ITT (n = 38)): −75.4 U/L
- ALP Mean Percent Change, Baseline to Day 85/ET ([2]; OCA 10 mg + UDCA, ITT (n = 38)): −23.3%
- ALP Median Change, Baseline to Day 85/ET ([2]; OCA 10 mg + UDCA, ITT (n = 38)): −47.5 U/L
- ALP Median Percent Change, Baseline to Day 85/ET ([2]; OCA 10 mg + UDCA, ITT (n = 38)): −21.0%
- ALP at Day 85/ET, Mean ([2]; OCA 10 mg + UDCA, ITT (n = 38)): 219.0 U/L
- ALP at Day 85/ET, Median ([2]; OCA 10 mg + UDCA, ITT (n = 38)): 177.5 U/L
- ALP Mean Change, Baseline to Day 85/ET [2, 6]: −76.0 U/L
- ALP Mean Percent Change, Baseline to Day 85/ET [2, 6]: −26.6%
- ALP Median Change, Baseline to Day 85/ET [2, 6]: −71.3 U/L
- ALP Median Percent Change, Baseline to Day 85/ET [2, 6]: −28.2%
- ALP at Day 85/ET, Mean [2, 6]: 199.0 U/L
- ALP at Day 85/ET, Median [2, 6]: 187.5 U/L
- ALP Mean Change, Baseline to Day 85/ET ([2]; OCA 25 mg + UDCA, ITT (n = 48)): −65.0 U/L
- ALP Mean Percent Change, Baseline to Day 85/ET ([2]; OCA 25 mg + UDCA, ITT (n = 48)): −24.0%
- ALP Median Change, Baseline to Day 85/ET ([2]; OCA 25 mg + UDCA, ITT (n = 48)): −69.3 U/L
- ALP Median Percent Change, Baseline to Day 85/ET ([2]; OCA 25 mg + UDCA, ITT (n = 48)): −27.8%
- ALP at Day 85/ET, Mean ([2]; OCA 25 mg + UDCA, ITT (n = 48)): 225.0 U/L
- ALP at Day 85/ET, Median ([2]; OCA 25 mg + UDCA, ITT (n = 48)): 187.5 U/L
- ALP Mean Change, Baseline to Day 85/ET [2, 7]: −101.8 U/L
- ALP Mean Percent Change, Baseline to Day 85/ET [2, 7]: −32.5%
- ALP Median Change, Baseline to Day 85/ET [2, 7]: −76.0 U/L
- ALP Median Percent Change, Baseline to Day 85/ET [2, 7]: −33.9%
- ALP at Day 85/ET, Mean [2, 7]: 179.1 U/L
- ALP at Day 85/ET, Median [2, 7]: 158.5 U/L
- ALP Mean Change, Baseline to Day 85/ET ([2]; OCA 50 mg + UDCA, ITT (n = 41)): −62.9 U/L
- ALP Mean Percent Change, Baseline to Day 85/ET ([2]; OCA 50 mg + UDCA, ITT (n = 41)): −20.0%
- ALP Median Change, Baseline to Day 85/ET ([2]; OCA 50 mg + UDCA, ITT (n = 41)): −56.5 U/L
- ALP Median Percent Change, Baseline to Day 85/ET ([2]; OCA 50 mg + UDCA, ITT (n = 41)): −22.7%
- ALP at Day 85/ET, Mean ([2]; OCA 50 mg + UDCA, ITT (n = 41)): 227.9 U/L
- ALP at Day 85/ET, Median ([2]; OCA 50 mg + UDCA, ITT (n = 41)): 197.0 U/L
- change in expression of CYP2B6, CYP2C8, CYP2D6, MRP2, MRP3, MRP4, MATE1, and OATP2B1 [3]: did not cause a significant change
- potency compared to CDCA [4]: approximately 100 fold

Reference: US10758549B2, “Compositions of obeticholic acid and methods of use” (Intercept Pharmaceuticals, Inc., priority 2015, dated 2020)
